Source: patent EP0222702A2, “Basic carbonyl derivatives” (CIBA-GEIGY AG, priority 1985, dated 1987)
pIC50: −log10 of the molar value.

Legend:
[1] = system: Noradrenalin-induzierten Vasokonstriktion, isoliert perfundierten Mesenterialgefässen der Ratte; assay: Inhibition of noradrenaline-induced vasoconstriction in isolated perfused rat mesenteric vessels; conditions: in vitro, read-out: Hemmung der Noradrenalin-induzierten Vasokonstriktion (ICso)
Text: Die Verbindungen der Formel 1 und deren Salze besitzen wertvolle pharmakologische Eigenschaften, vor allem im cardiovasculären Bereich. Sie wirken als Calcium-Antagonisten und besitzen a-Rezeptoren blockierende sowie Serotonin-antagonistische Eigenschaften, wie sich z.B. in in-vitro-Versuchen an isoliert perfundierten Mesenterialgefässen der Ratte [McGregor, D.: J.Physiol. 177, 21-30, (1965)] als Hemmung der Kalium-,Noradrenalin-und Serotonin-induzierten Vasokonstriktion, beispielsweise unter Verwendung von 2,6-Dimethyl-4-(3-nitrophenyl)-1,4-dihydropyridin-3-carbonsäurmethylester-5-carbonsäure-[2-[4-(p-fluorben- zoyl)-piperidin-1-yl] -1-phenyl]-äthylester (Diastereomerengemisch) bei einer Konzentration von ca. 5 nMol/Liter (IC50) für die Hemmung der Kalium-induzierten Vasokonstriktion, von ca. 4 nMol/Liter (ICso) für die Hemmung der Noradrenalin-induzierten Vasokonstriktion und von ca. 80 nMol/Liter für die Hemmung der Serotonin-induzierten Vasokonstriktion zeigen lässt.

[2] = target: T1, Dihydropyridin-Rezeptoren (Cavia porcellus, UniProt O35505); assay: Displacement of 3H-nitrendipine binding from guinea pig heart membranes; set-up: species or system Meerschweichen; conditions: membranes of guinea pig hearts, in vitro; read-out: Verdrängung der Bindung von 3H-Nitrendipin, Konzentration (IC50)
T1 construct: from tissue; host or cells: guinea pig heart membranes
T1 sequence (O35505 whole entry): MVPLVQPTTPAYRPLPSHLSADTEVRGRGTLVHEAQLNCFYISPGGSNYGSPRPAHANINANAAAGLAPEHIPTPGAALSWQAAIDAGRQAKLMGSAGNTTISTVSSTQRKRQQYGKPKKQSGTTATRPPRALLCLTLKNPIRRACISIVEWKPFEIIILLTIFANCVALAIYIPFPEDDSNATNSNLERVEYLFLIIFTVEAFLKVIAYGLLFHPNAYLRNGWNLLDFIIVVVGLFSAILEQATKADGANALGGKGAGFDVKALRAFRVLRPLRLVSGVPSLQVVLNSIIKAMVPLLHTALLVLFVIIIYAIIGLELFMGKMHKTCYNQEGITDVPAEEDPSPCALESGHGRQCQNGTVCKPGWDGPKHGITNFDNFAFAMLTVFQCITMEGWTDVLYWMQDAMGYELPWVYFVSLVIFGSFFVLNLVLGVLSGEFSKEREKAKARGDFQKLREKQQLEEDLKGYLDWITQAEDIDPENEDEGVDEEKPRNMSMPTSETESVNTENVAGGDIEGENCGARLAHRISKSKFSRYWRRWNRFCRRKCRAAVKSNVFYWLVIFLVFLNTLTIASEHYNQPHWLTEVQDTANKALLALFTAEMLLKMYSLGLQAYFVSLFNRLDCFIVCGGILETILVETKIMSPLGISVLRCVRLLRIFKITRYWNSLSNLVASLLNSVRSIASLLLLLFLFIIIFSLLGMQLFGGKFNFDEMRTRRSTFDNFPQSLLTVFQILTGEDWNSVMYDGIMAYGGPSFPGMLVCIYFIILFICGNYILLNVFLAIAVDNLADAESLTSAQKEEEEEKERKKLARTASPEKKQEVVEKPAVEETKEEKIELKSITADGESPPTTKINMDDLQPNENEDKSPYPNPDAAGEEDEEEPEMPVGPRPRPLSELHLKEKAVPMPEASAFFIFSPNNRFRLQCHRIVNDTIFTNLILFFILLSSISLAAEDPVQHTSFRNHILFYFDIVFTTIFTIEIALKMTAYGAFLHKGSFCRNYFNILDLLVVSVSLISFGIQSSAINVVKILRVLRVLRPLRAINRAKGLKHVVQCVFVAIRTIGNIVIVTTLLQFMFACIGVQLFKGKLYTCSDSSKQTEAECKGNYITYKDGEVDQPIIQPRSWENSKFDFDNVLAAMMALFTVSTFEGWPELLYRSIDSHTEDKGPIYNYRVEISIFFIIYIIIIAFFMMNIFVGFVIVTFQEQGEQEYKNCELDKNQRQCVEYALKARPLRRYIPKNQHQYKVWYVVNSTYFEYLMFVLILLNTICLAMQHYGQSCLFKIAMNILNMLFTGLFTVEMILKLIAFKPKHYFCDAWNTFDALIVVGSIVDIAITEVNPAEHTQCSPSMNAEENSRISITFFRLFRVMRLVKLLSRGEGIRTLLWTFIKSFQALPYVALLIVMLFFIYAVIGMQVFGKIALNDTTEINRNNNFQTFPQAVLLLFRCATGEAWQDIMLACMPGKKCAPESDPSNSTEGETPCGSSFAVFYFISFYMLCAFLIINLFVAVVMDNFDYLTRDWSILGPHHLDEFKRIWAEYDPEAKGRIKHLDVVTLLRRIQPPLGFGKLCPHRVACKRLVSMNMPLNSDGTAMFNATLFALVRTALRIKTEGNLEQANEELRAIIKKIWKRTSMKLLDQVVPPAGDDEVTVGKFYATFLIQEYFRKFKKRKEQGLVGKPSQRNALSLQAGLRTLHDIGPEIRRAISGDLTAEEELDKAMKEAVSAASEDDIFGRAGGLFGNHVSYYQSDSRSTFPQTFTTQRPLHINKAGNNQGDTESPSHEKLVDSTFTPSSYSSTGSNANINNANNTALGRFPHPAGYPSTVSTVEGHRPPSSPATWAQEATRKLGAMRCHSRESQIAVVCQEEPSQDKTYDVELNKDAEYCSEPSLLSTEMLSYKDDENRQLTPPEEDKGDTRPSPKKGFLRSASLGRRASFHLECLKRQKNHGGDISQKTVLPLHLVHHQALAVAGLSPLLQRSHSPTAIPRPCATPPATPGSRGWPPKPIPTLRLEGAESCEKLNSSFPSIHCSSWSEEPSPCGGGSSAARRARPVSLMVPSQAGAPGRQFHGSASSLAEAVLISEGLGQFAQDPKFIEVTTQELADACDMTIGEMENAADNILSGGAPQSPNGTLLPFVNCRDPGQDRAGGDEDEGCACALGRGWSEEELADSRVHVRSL
Text: (§1) Ferner lässt sich die Bindung der neuen Verbindungen oder deren Salze an Dihydropyridin-Rezeptoren mittels Verdrängung der Bindung von ^3H-Nitrendipin an Membranen von Meerschweichenherzen in in-vitro-Versuchen [Erne, P. et al,: Biochem. Biophys. Res. Commm., 118, 842-847 (1984)] z.B. unter Verwendung von 2,6-Dimethyl-4-(3-nitrophenyl)-1,4-dihydropyridin-3-carbonsäuremethylester-5-carbonsäure-[2-[4-(p-fluorobenzoyl)-piperidin-1-yl]-1-phenyl] -äthyl ester (Diastereomerengemisch) bei einer Konzentration (IC50) von etwa 0,2 nMol/Liter nachweisen. Ebenso kann die Bindung der erfindungsgemässen Verbindungen an ai-Rezeptoren durch Verdrängung von ^3H-Prazosin aus seinen Bindungsstellen an der Ratten-Cerebralcortex-Membran gemäss der Methodik von P. Greenengass et al., Eur. J. Pharmacol. 55, 323, (1979), bei etwa 300 nMol/Liter in vitro signifikant nachgewiesen werden. Ausserdem lässt sich die Bindung der neuen Verbindungen oder deren Salze an Serotonin-(5HT2)-Rezeptoren mittels Verdrängung der Bindung von ^3H-Ketanserin an Membranen des Rattenhirns [Leysen, J.E. et al.: Molecul. Pharmacol. 21, 301-304, (1982)] z.B. unter Verwendung von 2,6-Dimethyl-4-(3-nitrophenyl)-1,4-dihydropyridin-3-carbonsäuremethylester-5-carbonsäure-[2-[4-(p-fluorbenzoyl)-piperidin-1-yl]-1-phenyl]-äthylester (Diastereomerengemisch) bei einer Konzentration (ICso) von etwa 6,0 nMol/Liter zeigen.

[3] = target: T2, Serotonin-(5HT2)-Rezeptoren (Rattus norvegicus, UniProt P14842); assay: Displacement of 3H-ketanserin binding from rat brain membranes; set-up: species or system Ratten; conditions: read-out: Verdrängung der Bindung von 3H-Ketanserin, Konzentration (ICso)
T2 construct: from tissue; host or cells: rat brain membranes
T2 sequence (P14842 whole entry): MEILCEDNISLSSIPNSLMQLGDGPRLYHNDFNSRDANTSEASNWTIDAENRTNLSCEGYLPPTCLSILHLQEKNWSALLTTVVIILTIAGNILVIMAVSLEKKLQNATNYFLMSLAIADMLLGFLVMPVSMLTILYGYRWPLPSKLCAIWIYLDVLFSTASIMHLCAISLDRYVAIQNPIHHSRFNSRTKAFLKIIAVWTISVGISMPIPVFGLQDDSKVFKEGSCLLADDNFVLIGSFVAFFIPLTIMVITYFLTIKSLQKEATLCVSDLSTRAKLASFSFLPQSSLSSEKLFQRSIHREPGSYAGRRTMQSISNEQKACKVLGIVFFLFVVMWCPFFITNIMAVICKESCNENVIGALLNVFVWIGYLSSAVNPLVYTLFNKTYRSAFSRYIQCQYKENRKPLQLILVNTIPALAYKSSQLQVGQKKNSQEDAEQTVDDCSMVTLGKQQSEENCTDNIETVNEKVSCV
Text: as §1

[4] = system: renal hypertensiven Ratte; assay: Blood pressure lowering in the renal hypertensive rat; assay type: in vivo; conditions: 2 hours after p.o. application of ca. 2,0 mg/kg
Method: Die neuen Verbindungen oder deren Salze bewirken ferner eine Hemmung der durch Angiotensin 11, durch elektrische Stimulation oder durch Phenylephrin oder Noradrenalin induzierten pressorischen Effekte an der "pithed rat" [J.S. Gillespie: Br.J.Pharmacoi. 30, 78 (1967)] bei einer Dosis von etwa 2 mg/kg, und eine Hemmung der durch Serotonin induzierten pressorischen Effekte bei einer Dosis von etwa 6 mg/kg. Die neuen Verbindungen oder deren Salze wirken ausserdem antihypertensiv, was sich z.B. durch Senkung des Blutdrucks an der renal hypertensiven Ratte [Goldblatt et al.: J.exp.med. 59, 347 (1934)] zeigen lässt. So kann z.B. 2 Stunden nach p.o-Applikation von ca. 2,0 mg/kg 2,6-Dimethyl-4-(3-nitrophenyl)-1,4-dihydropyridin-3-carbonsäuremethylester-5-carbonsäure-[2-[4-(p-fluorbenzoyl)-piperidin-1-yl]-1-phenyl]-äthylester (Diastereomerengemisch) an der renal hypertensiven Ratte eine Blutdrucksenkung von ca. -70 mm Hg beobachtet werden.

Question: How did the pIC50 [1] turn out when COC(=O)C1=C(C)NC(C)=C(C(=O)OC(CN2CCC(C(=O)c3ccc(F)cc3)CC2)c2ccccc2)C1c1cccc([N+](=O)[O-])c1 (stereo not shown) [Beispiel 1, 2,6-Dimethyl-4-(3-nitrophenyl)-1,4-dihydropyridin-3-carbonsäuremethylester-5-carbonsäure-[2-[4-(p-fluorbenzoyl)-piperidin-1-yl]-1-phenyl]-äthylester] was run?
Answer: The pIC50 was roughly 8.40.

Question: What about the pIC50 [2] of the same compound?
Answer: The pIC50 was roughly 9.70.

Question: And the pIC50 [3]?
Answer: Its pIC50 is roughly 8.22.

Question: And the Blutdrucksenkung [4]?
Answer: The Blutdrucksenkung was “ca. -70 mm Hg”.
